The results in this text go back to patent US20170050966A1, “INHIBITING THE TRANSIENT RECEPTOR POTENTIAL A1 ION CHANNEL” (HYDRA BIOSCIENCES, INC., priority 2014, published 2017).

Each structure is given as a SMILES string. ≈ marks a conversion by molar mass, not a printed value. Like-named read-outs stand apart in the source and are kept apart here. Bounds are passed on as bounds.

The target in one data set is T1, human TRPA1 (hTRPA1) (Homo sapiens, UniProt O75762).
T1 construct: expressed in transfected cells
T1 sequence (O75762 whole entry): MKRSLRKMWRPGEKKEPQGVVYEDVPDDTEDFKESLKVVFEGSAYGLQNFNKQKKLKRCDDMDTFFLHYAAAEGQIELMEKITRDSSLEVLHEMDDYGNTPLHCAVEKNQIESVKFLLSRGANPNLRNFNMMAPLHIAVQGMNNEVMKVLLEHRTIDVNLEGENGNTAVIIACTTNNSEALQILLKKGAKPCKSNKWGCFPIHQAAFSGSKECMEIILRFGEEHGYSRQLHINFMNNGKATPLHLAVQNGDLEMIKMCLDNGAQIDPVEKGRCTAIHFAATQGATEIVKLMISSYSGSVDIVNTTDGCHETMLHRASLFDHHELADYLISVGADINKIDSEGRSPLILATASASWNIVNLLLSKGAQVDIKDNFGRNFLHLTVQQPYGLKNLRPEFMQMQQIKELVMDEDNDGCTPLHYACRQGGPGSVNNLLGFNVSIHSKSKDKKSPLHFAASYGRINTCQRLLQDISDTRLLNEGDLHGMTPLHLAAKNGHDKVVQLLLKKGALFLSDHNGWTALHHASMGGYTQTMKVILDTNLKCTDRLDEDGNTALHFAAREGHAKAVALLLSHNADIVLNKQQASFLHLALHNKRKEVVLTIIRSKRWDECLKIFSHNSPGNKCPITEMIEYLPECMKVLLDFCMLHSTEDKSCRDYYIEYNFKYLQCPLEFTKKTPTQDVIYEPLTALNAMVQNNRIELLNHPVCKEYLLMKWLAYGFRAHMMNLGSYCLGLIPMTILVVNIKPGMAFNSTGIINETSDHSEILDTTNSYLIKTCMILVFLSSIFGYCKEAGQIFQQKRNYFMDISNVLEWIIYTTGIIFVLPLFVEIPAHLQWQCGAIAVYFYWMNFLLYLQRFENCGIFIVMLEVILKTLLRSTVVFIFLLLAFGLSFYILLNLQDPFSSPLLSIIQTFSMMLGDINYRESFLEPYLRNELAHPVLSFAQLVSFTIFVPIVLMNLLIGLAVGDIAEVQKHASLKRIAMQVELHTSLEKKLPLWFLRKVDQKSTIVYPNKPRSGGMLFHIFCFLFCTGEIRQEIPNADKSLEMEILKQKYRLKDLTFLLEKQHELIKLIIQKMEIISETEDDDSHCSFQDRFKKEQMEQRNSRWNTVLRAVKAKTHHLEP
The data set can be described thus: Inhibition of human TRPA1, whole-cell patch clamp. The data set is classed as cell-based. To be noted: antagonist effect, whole cell patch configuration; read-out: hTRPA1. The procedure: Data for TRPA1 inhibition was obtained by this method for the indicated compounds of Formula (I), with the relevant data included in Table 14 below. All currents were recorded in whole-cell configuration using EPC-9 and EPC-10 amplifiers and Patchmaster software (HEKA). […] The standard pipette solution consisted of 140 mM CsAsp, 10 mM EGTA, 10 mM HEPES, […], 1.91 mM CaCl2, and up to 0.3 mM Na2GTP, with pH adjusted to 7.2 with CsOH. In addition, a solution containing 145 mM CsCl, 10 mM HEPES, 10 mM EGTA, and up to 0.3 mM Na2GTP and 1 mM MgCl2 (pH 7.2 adjusted with CsOH) can be used. The standard bath solution contained 150 mM NaCl, 10 mM HEPES, 10 mM glucose, 4.5 mM KCl, 1 mM EGTA, 3 mM MgCl2, with pH adjusted to 7.4 with NaOH. In some instances, 2 mM CaCl2 was added in place of EGTA and the concentration of MgCl2 was reduced to 1 mM.
Data were collected either by continuous recordings at −60 mV or by applying voltage ramps from a holding potential of 0 mV every 4 s. Continuous recordings were collected at 400 Hz and digitally filtered off-line at 10 Hz for presentation. Voltage ramps were applied from −100 mV to 100 mV over the course of 400 ms, and data were collected at 10 kHz and filtered at […]. Inward and outward currents were analyzed from the ramps at −80 and 80 mV, respectively. Liquid junction potential correction was not used.
Solutions were switched using a gravity-fed continuous focal perfusion system. To achieve rapid temperature changes, two temperature control, and perfusion systems were employed simultaneously. For temperatures greater than or equal to 22° C., a Warner Instruments bipolar temperature controller (TC-344B) and inline heater (SHM-8) were used. […] Temperatures were confirmed using a thermistor (Warner Instruments, TA-29), with temperatures at the recorded cell estimated to be within +/−2° C. of those reported.
The antagonist effects of compounds of Formula (I) against human TRPA1 (“hTRPA1”) in a whole cell patch configuration were evaluated using the in vitro assay protocol described above.
In general terms: The patch-clamp technique gives a direct electrical read-out from membranes.

Data set [1] is described as follows: Metabolic stability in liver microsomes. The format is in vitro ADME, human. As to conditions: 1 μM test compound; for half-life at 1 μM: human, liver microsomes, 37° C. The procedure: (§1) Metabolic stability of the compounds of Formula (I) was determined by standard liver microsome assays. Briefly, metabolic stability was tested by adding the compound to be tested dissolved in DMSO to human, dog, or rat liver microsomes. Assays were run with a starting concentration of 1 μM test compound. The reaction was initiated by addition of nicotinamide adenine dinucleotide phosphate[…] (NADPH) regeneration components at 37° C., at which time an aliquot was immediately quenched in an ice-cold acetonitrile/methanol/water solution. Reaction mixture was incubated at 37° C. on a shaker, and additional aliquots were taken at 7, 15, 30 and 60 minutes. Following quench and centrifugation, samples were analyzed on HPLC/MS/MS.
On the technique in general: Microsomes from liver hold many membrane-bound enzymes, among them those of drug oxidation.

A short description of data set [2]: Metabolic stability in liver microsomes. As to conditions: rat liver microsomes. The format is in vitro ADME. The procedure:
as §1

Data set [3] can be described thus: Kinetic solubility in buffered solutions. The data set is classed as physicochemical. To be noted: aqueous buffer, kinetic from dmso stock, 24 hours ambient. The procedure:
The solubilities of the compounds of Formula (I) were tested using the procedure outlined in Kerns, E. H., J Pharm Sci (2001) 90:1838-1858, incorporated herein by reference and described below. Data for solubility was obtained by this method for compounds of Formula (I) and included in Table 3. The chromatographic data was performed by HPLC using an Xbridge Shield RP18 column with the following column dimensions: 4.6×30 mm, 3.5 μm. The mobile phase consisted of deionized water (MPA) with trifluoroacetic acid added in at 0.1% (v/v) (MPC) and HPLC-grade acetonitrile (MPB). The mobile phase flow rate was 2.5 mL/min with the column and sampling operating at ambient temperature. UV detection was set to 280 nm.
Samples for analysis of the compounds of Formula (I) were prepared at a % v/v=1/19 (i.e., 10 μL of the stock solution into 190 μL of buffer) by spiking stock solutions of the compounds of Formula (I) into buffered solutions. Three buffered solution systems were prepared: pH 4.0 prepared from 50 mM sodium acetate in a 5% dextrose in water solution, pH 7.4 prepared from 75 mM sodium phosphate in a 1:1 ratio of sterilized water for injection to a 5% dextrose in water solution, and pH 9.0 prepared from 50 mM sodium bicarbonate in a 1:2 ratio of sterilized water for injection to a 5% dextrose in water solution. The samples were incubated on a microplate shaker at 300 rpm for 24 hours at ambient temperature. Following incubation, the samples were centrifuged for five minutes at 13 k rpm at ambient temperature. The resulting supernantant was extracted for HPLC analysis.

Setting [4] is: sodium acetate buffer, pH 4.0, 50 mM sodium acetate, read-out: pH 4.0 solubility.
Where [5] appears, read: sodium bicarbonate buffer, pH 9.0, 50 mM sodium bicarbonate, read-out: pH 9.0 solubility.
[6] abbreviates: sodium phosphate buffer, pH 7.4, 75 mM sodium phosphate, read-out: pH 7.4 solubility.

Regarding `C[C@H](C(=O)Nc1ccnc(-c2cnc(N3CCC[C@H]3C(F)(F)F)nc2)n1)n1cnc2c1c(=O)n(C)c(=O)n2C` [Compound 3, (R)-2-(1,3-dimethyl-2,6-dioxo-2,3-dihydro-1H-purin-7(6H)-yl)-N-(2′-((S)-2-(trifluoromethyl)pyrrolidin-1-yl)-[2,5′-bipyrimidin]-4-yl)propanamide], at human TRPA1 (hTRPA1), the IC50 was 2.29 µM.

On to `Cn1c(=O)c2c(ncn2CC(=O)Nc2ccnc(-c3cnc(N4CC(F)(F)C4)nc3)n2)n(C)c1=O` [Compound 7, N-(2′-(3,3-difluoroazetidin-1-yl)-[2,5′-bipyrimidin]-4-yl)-2-(1,3-dimethyl-2,6-dioxo-2,3-dihydro-1H-purin-7(6H)-yl)acetamide], for which the IC50 on human TRPA1 (hTRPA1) is 0.922 µM.

Consider `Cn1c(=O)c2c(ncn2CC(=O)Nc2ccnc(-c3cnc(N4CCC(F)(F)CC4)nc3)n2)n(C)c1=O` [Compound 8, N-(2′-(4,4-difluoropiperidin-1-yl)-[2,5′-bipyrimidin]-4-yl)-2-(1,3-dimethyl-2,6-dioxo-2,3-dihydro-1H-purin-7(6H)-yl)acetamide], for which the IC50 on human TRPA1 (hTRPA1) stood at 0.0719 µM. Moreover, the half-life (as a rule, the time needed for the level to fall by half in the phase considered) at 1 μM in data set [1] worked out at 38.4 min; in data set [2] (both sexes, read-out: Half-Life Both sexes), 115 min.

Regarding `C[C@@H](C(=O)Nc1ccnc(-c2cnc(N3CC(F)(F)C3)nc2)n1)n1cnc2c1c(=O)n(C)c(=O)n2C` [Compound 9, (S)—N-(2′-(3,3-difluoroazetidin-1-yl)-2,5′-bipyrimidin-4-yl)-2-(1,3-dimethyl-2,6-dioxo-2,3-dihydro-1H-purin-7(6H)-yl)propanamide], the IC50 at human TRPA1 (hTRPA1) stood at 0.462 µM.

Regarding `Cn1c(=O)c2c(ncn2CC(=O)Nc2ccnc(-c3cnc(N4CC5CC5C4)nc3)n2)n(C)c1=O` (centres unmarked) [Compound 10, N-(2′-(3-azabicyclo[3.1.0]hexan-3-yl)-[2,5′-bipyrimidin]-4-yl)-2-(1,3-dimethyl-2,6-dioxo-2,3-dihydro-1H-purin-7(6H)-yl)acetamide], the IC50 on human TRPA1 (hTRPA1) came out at 0.0935 µM.

On to `Cn1c(=O)c2c(ncn2CC(=O)Nc2ccnc(-c3cnc(N4CCC(C(F)(F)F)C4)nc3)n2)n(C)c1=O` (centres unmarked) [Compound 11, 2-(1,3-dimethyl-2,6-dioxo-2,3-dihydro-1H-purin-7(6H)-yl)-N-(2′-(3-(trifluoromethyl)pyrrolidin-1-yl)-[2,5′ bipyrimidin]-4-yl)acetamide], for which, on human TRPA1 (hTRPA1), the IC50 is 0.124 µM.

Regarding `Cn1c(=O)c2c(ncn2CC(=O)Nc2ccnc(-c3cnc(N4CC(C(F)(F)F)C4)nc3)n2)n(C)c1=O` [Compound 12, 2-(1,3-dimethyl-2,6-dioxo-1,2,3,6-tetrahydropurin-7-yl)-N-(2-(2-(3-(trifluoromethyl)azetidin-1-yl)pyrimidin-5-yl)pyrimidin-4-yl)acetamide], at human TRPA1 (hTRPA1), the IC50 amounted to 0.387 µM.

Turning to `C[C@@H](C(=O)Nc1ccnc(-c2cnc(N3CCC(F)(F)CC3)nc2)n1)n1cnc2c1c(=O)n(C)c(=O)n2C` [Compound 14, (S)—N-(2′(4,4-difluoropiperidin-1-yl)-2,5′-bipyrimidin-4-yl)-2-(1,3-dimethyl-2,6-dioxo-2,3-dihydro-1H-purin-7(6H)-yl)propanamide], the IC50 on human TRPA1 (hTRPA1) stood at 0.0948 µM.

Turning to `C[C@H]1CCCCN1c1ncc(-c2nccc(NC(=O)Cn3cnc4c3c(=O)n(C)c(=O)n4C)n2)cn1` [Compound 17, (S)-2-(1,3-dimethyl-2,6-dioxo-2,3-dihydro-1H-purin-7(6H)-yl)-N-(2′-(2-methylpiperidin-1-yl)-2,5′-bipyrimidin-4-yl)acetamide], at human TRPA1 (hTRPA1), the IC50 came to 0.0412 µM. Moreover, in data set [1], the “Human Liver Microsomes Hepatic Clearance” value is 0.96 L/h/kg. The same compound showed a half-life at 1 μM in data set [1] of 8 min. In addition, the solubility kinetic at 24 h in data set [3] (setting [4]) amounted to 0.011 mg/mL (≈ 22.4 µM); in data set [3] (setting [5]), 0.009 mg/mL (≈ 18.3 µM); in data set [3] (setting [6]) it was 0.012 mg/mL (≈ 24.5 µM). Further, the “Hepatic Clearance” value in data set [2] worked out at 1.32 L/h/kg.

On to `C[C@H](C(=O)Nc1ccnc(-c2cnc(N3CCC[C@@H]3C)nc2)n1)n1cnc2c1c(=O)n(C)c(=O)n2C` [Compound 22, (R)-2-(1,3-dimethyl-2,6-dioxo-2,3-dihydro-1H-purin-7(6H)-yl)-N-(2′-((S)-2-methylpyrrolidin-1-yl)-[2,5′-bipyrimidin]-4-yl)propanamide], for which the IC50 at human TRPA1 (hTRPA1) was greater than 3.2 µM. The “Human Liver Microsomes Hepatic Clearance” value in data set [1] is 0.72 L/h/kg. In data set [1], this compound returned a half-life at 1 μM of 26 min. The solubility kinetic at 24 h in data set [3] (setting [4]) worked out at 0.05 mg/mL (≈ 102 µM); in data set [3] (setting [5]), 0.07 mg/mL (≈ 143 µM); in data set [3] (setting [6]) it was 0.089 mg/mL (≈ 181 µM).

On to `CC(C(=O)Nc1ccnc(-c2cnc(N3CCCC[C@@H]3C)nc2)n1)n1cnc2c1c(=O)n(C)c(=O)n2C` (stereo partly drawn) [Compound 23, 2-(1,3-dimethyl-2,6-dioxo-2,3-dihydro-1H-purin-7(6H)-yl)-N-(2′-((S)-2-methylpiperidin-1-yl)-2,5′-bipyrimidin-4-yl)propanamide], for which, at human TRPA1 (hTRPA1), the IC50 was found to be 0.0607 µM. In addition, the “Human Liver Microsomes Hepatic Clearance” value in data set [1] was found to be 1.08 L/h/kg. In data set [1], the half-life at 1 μM came to 4 min. The solubility kinetic at 24 h in data set [3] (setting [4]) is 0.02 mg/mL (≈ 39.6 µM); in data set [3] (setting [5]), 0.014 mg/mL (≈ 27.7 µM); in data set [3] (setting [6]), 0.031 mg/mL (≈ 61.4 µM).

`C[C@H]1CCCN1c1ncc(-c2nccc(NC(=O)Cn3cnc4c3c(=O)[nH]c(=O)n4C)n2)cn1` [Compound 24, (S)-2-(3-methyl-2,6-dioxo-2,3-dihydro-1H-purin-7(6H)-yl)-N-(2′-(2-methylpyrrolidin-1-yl)-[2,5′-bipyrimidin]-4-yl)acetamide]: on human TRPA1 (hTRPA1), the IC50 worked out at 0.436 µM.

In the case of `[2H]C([2H])([2H])n1c(=O)n(C)c(=O)c2c1ncn2CC(=O)Nc1ccnc(-c2cnc(N3CCC[C@@H]3C)nc2)n1` [Compound 25, N-{2-[2-((2S)-2-methylpyrrolidinyl)pyrimidin-5-yl]pyrimidin-4-yl}-2-(1-methyl-3-methyl-d3-2,6-dioxo(1,3,7-trihydropurin-7-yl))acetamide], the IC50 at human TRPA1 (hTRPA1) worked out at 0.107 µM. In addition, the “Human Liver Microsomes Hepatic Clearance” value in data set [1] came out at 0.48 L/h/kg. In data set [1], this compound showed a half-life at 1 μM of 43 min. Also, the solubility kinetic at 24 h in data set [3] (setting [4]) stood at 0.045 mg/mL (≈ 93.8 µM); in data set [3] (setting [5]), 0.011 mg/mL (≈ 22.9 µM); in data set [3] (setting [6]) it was 0.029 mg/mL (≈ 60.5 µM).

Take `Cn1c(=O)c2c(ncn2CC(=O)Nc2ccnc(-c3cnc(N4CCC[C@H]4C(F)(F)F)nc3)n2)n(C)c1=O` [Compound 27, (S)-2-(1,3-dimethyl-2,6-dioxo-2,3-dihydro-1H-purin-7(6H)-yl)-N-(2′-(2-(trifluoromethyl)pyrrolidin-1-yl)-[2,5′-bipyrimidin]-4-yl)acetamide]: on human TRPA1 (hTRPA1), the IC50 turned out to be 0.255 µM.

For `C[C@H](C(=O)Nc1ccnc(-c2cnc(N3CCC[C@@H]3C(F)(F)F)nc2)n1)n1cnc2c1c(=O)n(C)c(=O)n2C` [Compound 28], at human TRPA1 (hTRPA1), the IC50 was 0.0659 µM.
